Reference: ChEMBL document CHEMBL4406811, “Optimization and Mechanistic Characterization of Pyridopyrimidine Inhibitors of Bacterial Biotin Carboxylase” (J Med Chem, 2019)
In brackets after ≈: the same amount, converted by molar mass. Activity calls are given as the source filed them. The calls are words filed in the database; no cut-off is given here.

What was measured:
[1] = test system: Pseudomonas aeruginosa; assay: Antibacterial activity against Pseudomonas aeruginosa PAO1 PAM1262 harboring MexAB-OprM/MexCD-OprJ/MexEF-OprN deletion mutant measured after 18 to 20 hrs by broth microdilution method; format: functional
[2] = molecular target: Biotin carboxylase (Pseudomonas aeruginosa (strain ATCC 15692 / DSM 22644 / CIP 104116 / JCM14847 / LMG 12228 / 1C / PRS 101 / PAO1), UniProt P37798); assay: Inhibition of recombinant N-terminal His-tagged Pseudomonas aeruginosa PAO1 biotin carboxylase expressed in Escherichia coli Rosetta(DE3) pLysS cells using biotin as substrate by spectroscopic analysis
[3] = test system: Escherichia coli; assay: Antibacterial activity against Escherichia coli DM4100 harboring deltatolC mutant measured after 18 to 20 hrs by broth microdilution method; format: functional
[4] = test system: Escherichia coli; assay: Antibacterial activity against Escherichia coli DM4100 harboring deltatolC mutant measured after 18 to 20 hrs in presence of permeabilizing agent PMBN by broth microdilution method; format: functional
[5] = test system: Escherichia coli; assay: Induction of cytological changes in Escherichia coli ATCC 25922 assessed as formation of short chains of three to eight cells at 150 ug/ml measured after 2 hrs by FM 4-64/DAPI staining based microscopic analysis; format: functional, organism-based

Biotin carboxylase, sequence (P37798 whole entry): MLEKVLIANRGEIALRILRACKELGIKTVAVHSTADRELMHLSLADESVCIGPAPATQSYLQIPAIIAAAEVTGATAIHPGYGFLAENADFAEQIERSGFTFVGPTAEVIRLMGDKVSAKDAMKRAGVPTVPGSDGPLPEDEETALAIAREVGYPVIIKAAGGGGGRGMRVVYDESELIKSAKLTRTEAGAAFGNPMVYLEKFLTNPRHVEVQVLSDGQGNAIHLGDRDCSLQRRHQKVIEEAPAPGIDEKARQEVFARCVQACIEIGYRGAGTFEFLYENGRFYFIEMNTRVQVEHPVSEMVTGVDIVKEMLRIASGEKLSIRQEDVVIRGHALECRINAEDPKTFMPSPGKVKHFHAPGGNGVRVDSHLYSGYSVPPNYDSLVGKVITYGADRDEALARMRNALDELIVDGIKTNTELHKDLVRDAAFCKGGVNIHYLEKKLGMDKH

## Nc1ncc2cc(-c3c(Cl)cccc3-c3ccncc3)c(N3C[C@@H]4[C@@H](N)[C@@H]4C3)nc2n1
[1]
  MIC: 2 µg/mL (≈ 4.65 µM)
[2]
  IC50: ≤ 15 nM
[3]
  MIC: 0.03 µg/mL (≈ 0.0698 µM)
[4]
  MIC: 0.015 µg/mL

## CC(C)COc1cccc(Cl)c1-c1cc2cnc(N)nc2nc1N
[2]
  IC50: 93 nM
[3]
  MIC: 0.25 µg/mL (≈ 0.727 µM)
[4]
  MIC: ≤ 0.06 µg/mL

## COc1ccc(-c2cccc(Cl)c2-c2cc3cnc(N)nc3nc2N)cn1
[2]
  IC50: 32 nM
[3]
  MIC: 0.06 µg/mL (≈ 0.158 µM)
[4]
  MIC: 0.03 µg/mL

## Nc1ncc2cc(-c3ccccc3-c3ccccc3)c(N)nc2n1
[2]
  IC50: 79 nM
[3]
  MIC: 0.5 µg/mL (≈ 1.6 µM)
[4]
  MIC: 0.25 µg/mL

## Nc1ncc2cc(-c3c(Cl)cccc3Cl)c(N)nc2n1
[1]
  MIC: 16 µg/mL (≈ 52.3 µM)
[2]
  IC50: 320 nM
[3]
  MIC: 0.5 µg/mL (≈ 1.63 µM)
[4]
  MIC: 0.25 µg/mL

## NCC1(O)CCN(c2nc3nc(N)ncc3cc2-c2c(Cl)cccc2Cl)C1 (centres undefined)
[1]
  MIC: > 64 µg/mL
[2]
  IC50: 83 nM
[3]
  MIC: 1 µg/mL (≈ 2.47 µM)
[4]
  MIC: 0.25 µg/mL

## NC(=O)C1CCN(c2nc3nc(N)ncc3cc2-c2c(Cl)cccc2Cl)C1 (centres undefined)
[2]
  IC50: 170 nM
[3]
  MIC: 0.5 µg/mL (≈ 1.24 µM)
[4]
  MIC: 0.12 µg/mL

## Nc1ncc2cc(-c3c(Cl)cccc3Cl)c(N3CCC(CO)C3)nc2n1 (centres undefined)
[2]
  IC50: 140 nM
[3]
  MIC: 0.25 µg/mL (≈ 0.641 µM)
[4]
  MIC: 0.12 µg/mL

## NCC1(F)CCN(c2nc3nc(N)ncc3cc2-c2c(Cl)cccc2Cl)C1 (centres undefined)
[2]
  IC50: 440 nM
[4]
  MIC: 1 µg/mL

## NCC1CCN(c2nc3nc(N)ncc3cc2-c2c(Cl)cccc2Cl)CC1
[1]
  MIC: 64 µg/mL (≈ 159 µM)
[2]
  IC50: 320 nM
[3]
  MIC: 1 µg/mL (≈ 2.48 µM)
[4]
  MIC: 0.5 µg/mL

## Nc1ncc2cc(-c3c(Cl)cccc3Cl)c(N3CCC(N)(CO)C3)nc2n1 (centres undefined)
[2]
  IC50: 190 nM
[3]
  MIC: 1 µg/mL (≈ 2.47 µM)
[4]
  MIC: 0.25 µg/mL

## Nc1ncc2cc(-c3ccccc3-c3cccnc3)c(N)nc2n1
[1]
  MIC: 16 µg/mL (≈ 50.9 µM)
[2]
  IC50: 130 nM
[3]
  MIC: 2 µg/mL (≈ 6.36 µM)
[4]
  MIC: 0.5 µg/mL

## Nc1ncc2cc(-c3c(Cl)cccc3-c3cccnc3)c(N)nc2n1
[1]
  MIC: 4 µg/mL (≈ 11.5 µM)
[2]
  IC50: 36 nM
[3]
  MIC: 0.12 µg/mL (≈ 0.344 µM)
[4]
  MIC: 0.06 µg/mL

## Cc1ncc(-c2cccc(Cl)c2-c2cc3cnc(N)nc3nc2N2C[C@@H]3[C@@H](N)[C@@H]3C2)s1
[1]
  MIC: 1 µg/mL (≈ 2.22 µM)
[2]
  IC50: ≤ 15 nM
[3]
  MIC: 0.008 µg/mL (≈ 0.0178 µM)
[4]
  MIC: 0.004 µg/mL

## COc1ncc(-c2cccc(Cl)c2-c2cc3cnc(N)nc3nc2N2C[C@@H]3[C@@H](N)[C@@H]3C2)cc1F
[1]
  MIC: 2 µg/mL (≈ 4.18 µM)
[2]
  IC50: ≤ 15 nM
[3]
  MIC: 0.015 µg/mL (≈ 0.0314 µM)
[4]
  MIC: 0.008 µg/mL

## Nc1ncc2cc(-c3c(Cl)cccc3Cl)c(N3C[C@@H]4[C@@H](N)[C@@H]4C3)nc2n1
[2]
  IC50: 33 nM
[3]
  MIC: 0.12 µg/mL (≈ 0.31 µM)
[4]
  MIC: 0.06 µg/mL

## NCC1CCN(c2nc3nc(N)ncc3cc2-c2c(Cl)cccc2Cl)C1 (centres undefined)
[5]
  Activity: Active
[2]
  IC50: 64 nM
[3]
  MIC: 0.5 µg/mL (≈ 1.28 µM)
[4]
  MIC: 0.12 µg/mL
